Assay results taken from ChEMBL document CHEMBL3885881, “DrugMatrix”.

Species: Rattus norvegicus
Experiment: DrugMatrix - Regimen: Daily Repeat
Type: toxicity, organism-based, Sprague-Dawley
Set-up: regimen Daily Repeat, gender Male, age 6-8 weeks
Conditions: in vivo, po, route oral GAVAGE, vehicle .5 % CMC; for ABSOLUTE BASOPHIL / ABSOLUTE EOSINOPHIL / ABSOLUTE LYMPHOCYTE / ABSOLUTE MONOCYTE / ABSOLUTE SEGMENTED NEUTROPHIL / BASOPHIL / EOSINOPHIL / ERYTHROCYTE COUNT / HEMATOCRIT / HEMOGLOBIN / LEUKOCYTE COUNT / LYMPHOCYTE / MEAN CORPUSCULAR HEMOGLOBIN / MEAN CORPUSCULAR HEMOGLOBIN CONCENTRATION / MEAN CORPUSCULAR VOLUME / MONOCYTE / NEUTROPHIL / NUCLEATED RED BLOOD CELLS / PLATELET COUNT: tissue Blood; for ALANINE AMINOTRANSFERASE / ALBUMIN / ALKALINE PHOSPHATASE / ASPARTATE AMINOTRANSFERASE / BLOOD UREA NITROGEN / CARBON DIOXIDE / CHLORIDE / CHOLESTEROL / CREATINE PHOSPHOKINASE / CREATININE / GLUCOSE / LACTATE DEHYDROGENASE / LIPASE / PHOSPHORUS / POTASSIUM / SODIUM / TOTAL BILIRUBIN / TOTAL PROTEIN / URIC ACID: tissue Plasma
[1] = 0 mg/kg, 72 h, dose level Control, time 3 day
[2] = 0 mg/kg, 120 h, dose level Control, time 5 day
[3] = 100 mg/kg, 72 h, dose level Low, time 3 day

O=C(O)CCc1nc(-c2ccccc2)c(-c2ccccc2)o1 [OXAPROZIN]
ABSOLUTE BASOPHIL [1]: 0 CELLS/uL | ABSOLUTE EOSINOPHIL [1]: 0 CELLS/uL | ABSOLUTE LYMPHOCYTE [1]: 12269.67 CELLS/uL | ABSOLUTE MONOCYTE [1]: 160.33 CELLS/uL | ABSOLUTE SEGMENTED NEUTROPHIL [1]: 970 CELLS/uL | BASOPHIL [1]: 0% | EOSINOPHIL [1]: 0% | ERYTHROCYTE COUNT [1]: 5.76 x10E6/uL | HEMATOCRIT [1]: 36.57% | HEMOGLOBIN [1]: 14.22 G/DL | LEUKOCYTE COUNT [1]: 13.4 x10E3/uL | LYMPHOCYTE [1]: 91.67% | MEAN CORPUSCULAR HEMOGLOBIN [1]: 24.67 pg | MEAN CORPUSCULAR HEMOGLOBIN CONCENTRATION [1]: 38.85 G/DL | MEAN CORPUSCULAR VOLUME [1]: 63.52 fL | MONOCYTE [1]: 1.17% | NEUTROPHIL [1]: 7.17% | NUCLEATED RED BLOOD CELLS [1]: 0.33 /100WBC | PLATELET COUNT [1]: 1250.83 x10E3/uL | ALANINE AMINOTRANSFERASE [1]: 49.17 u/L | ALBUMIN [1]: 4.33 G/DL | ALKALINE PHOSPHATASE [1]: 378.5 u/L | ASPARTATE AMINOTRANSFERASE [1]: 82.17 u/L | BLOOD UREA NITROGEN [1]: 15 mg/dL | CARBON DIOXIDE [1]: 34.33 mmol/L | CHLORIDE [1]: 99.17 MEQ/L | CHOLESTEROL [1]: 71.17 mg/dL | CREATINE PHOSPHOKINASE [1]: 258.67 u/L | CREATININE [1]: 0.18 mg/dL | GLUCOSE [1]: 142.67 mg/dL | LACTATE DEHYDROGENASE [1]: 154.33 u/L | LIPASE [1]: 9 u/L | PHOSPHORUS [1]: 11.67 mg/dL | POTASSIUM [1]: 7.13 MEQ/L | SODIUM [1]: 142.22 MEQ/L | TOTAL BILIRUBIN [1]: 0.18 mg/dL | TOTAL PROTEIN [1]: 5.77 G/DL | URIC ACID [1]: 1.55 mg/dL | ABSOLUTE BASOPHIL [2]: 0 CELLS/uL | ABSOLUTE EOSINOPHIL [2]: 23.33 CELLS/uL | ABSOLUTE LYMPHOCYTE [2]: 14943.67 CELLS/uL | ABSOLUTE MONOCYTE [2]: 32 CELLS/uL | ABSOLUTE SEGMENTED NEUTROPHIL [2]: 1084.33 CELLS/uL | BASOPHIL [2]: 0% | EOSINOPHIL [2]: 0.17% | ERYTHROCYTE COUNT [2]: 5.71 x10E6/uL | HEMATOCRIT [2]: 35.28% | HEMOGLOBIN [2]: 14.27 G/DL | LEUKOCYTE COUNT [2]: 16.08 x10E3/uL | LYMPHOCYTE [2]: 93% | MEAN CORPUSCULAR HEMOGLOBIN [2]: 25.02 pg | MEAN CORPUSCULAR HEMOGLOBIN CONCENTRATION [2]: 40.43 G/DL | MEAN CORPUSCULAR VOLUME [2]: 61.82 fL | MONOCYTE [2]: 0.17% | NEUTROPHIL [2]: 6.67% | NUCLEATED RED BLOOD CELLS [2]: 0.33 /100WBC | PLATELET COUNT [2]: 1274 x10E3/uL | ALANINE AMINOTRANSFERASE [2]: 54.17 u/L | ALBUMIN [2]: 4.22 G/DL | ALKALINE PHOSPHATASE [2]: 373.17 u/L | ASPARTATE AMINOTRANSFERASE [2]: 81.83 u/L | BLOOD UREA NITROGEN [2]: 16.67 mg/dL | CARBON DIOXIDE [2]: 30.33 mmol/L | CHLORIDE [2]: 99 MEQ/L | CHOLESTEROL [2]: 71 mg/dL | CREATINE PHOSPHOKINASE [2]: 273.5 u/L | CREATININE [2]: 0.22 mg/dL | GLUCOSE [2]: 141.83 mg/dL | LACTATE DEHYDROGENASE [2]: 153.67 u/L | LIPASE [2]: 10.33 u/L | PHOSPHORUS [2]: 11.38 mg/dL | POTASSIUM [2]: 7.08 MEQ/L | SODIUM [2]: 142.75 MEQ/L | TOTAL BILIRUBIN [2]: 0.18 mg/dL | TOTAL PROTEIN [2]: 6.1 G/DL | URIC ACID [2]: 1.67 mg/dL | ABSOLUTE BASOPHIL [3]: 0 CELLS/uL | ABSOLUTE EOSINOPHIL [3]: 43.67 CELLS/uL | ABSOLUTE LYMPHOCYTE [3]: 14019 CELLS/uL | ABSOLUTE MONOCYTE [3]: 367 CELLS/uL | ABSOLUTE SEGMENTED NEUTROPHIL [3]: 1137 CELLS/uL | BASOPHIL [3]: 0% | EOSINOPHIL [3]: 0.33% | ERYTHROCYTE COUNT [3]: 5.52 x10E6/uL | HEMATOCRIT [3]: 36.5% | HEMOGLOBIN [3]: 14.27 G/DL | LEUKOCYTE COUNT [3]: 15.57 x10E3/uL | LYMPHOCYTE [3]: 89.67% | MEAN CORPUSCULAR HEMOGLOBIN [3]: 25.87 pg | MEAN CORPUSCULAR HEMOGLOBIN CONCENTRATION [3]: 39.17 G/DL | MEAN CORPUSCULAR VOLUME [3]: 66.13 fL | MONOCYTE [3]: 2.33% | NEUTROPHIL [3]: 7.67% | NUCLEATED RED BLOOD CELLS [3]: 0.67 /100WBC | PLATELET COUNT [3]: 1268.67 x10E3/uL | ALANINE AMINOTRANSFERASE [3]: 66 u/L | ALBUMIN [3]: 4.57 G/DL | ALKALINE PHOSPHATASE [3]: 374.67 u/L | ASPARTATE AMINOTRANSFERASE [3]: 95 u/L | BLOOD UREA NITROGEN [3]: 16.67 mg/dL | CARBON DIOXIDE [3]: 29.67 mmol/L | CHLORIDE [3]: 99.67 MEQ/L | CHOLESTEROL [3]: 67 mg/dL | CREATINE PHOSPHOKINASE [3]: 308 u/L | CREATININE [3]: 0.25 mg/dL | GLUCOSE [3]: 141.33 mg/dL | LACTATE DEHYDROGENASE [3]: 432 u/L | LIPASE [3]: 8.67 u/L | PHOSPHORUS [3]: 11.9 mg/dL | POTASSIUM [3]: 6.67 MEQ/L | SODIUM [3]: 145.33 MEQ/L | TOTAL BILIRUBIN [3]: 0.33 mg/dL | TOTAL PROTEIN [3]: 6.13 G/DL | URIC ACID [3]: 2.03 mg/dL
